Publication PMC9595134, “Novel pituitary actions of GnRH in teleost: The link between reproduction and feeding regulation” (Frontiers in Endocrinology, 2022)
Where a SMILES comes first, the peptide text is derived from it. [ ]: non-standard residue; d: D form. pGlu = O=C1CC[C@@H](C(=O)O)N1

Test system: grass carp pituitary cells
Assay: RNA-seq of pituitary cells treated with GnRH3
Format: cell-based, grass carp (Ctenopharyngodon idellus)
Conditions: GnRH3 1 μM, 24 h
From the text: Then, total RNA was extracted from each well by TRIzol reagent (Yeasen) and DNase II was used to eliminate the interference of genomic DNA. The concentration and purity of each RNA sample were detected by a NanoDrop 2000 spectrophotometer, while the quality of RNA was identified on an Agilent 2100 Bioanalyzer using the RNA 6000 Nano Kit (Agilent Technologies, Santa Clara, CA, USA). […] In this study, a read depth of 0.6 billion 150-bp single-end reads was used and about 90% of reads were mapped to the genome. Gene expression levels were assigned individual values by being normalized to the number of transcripts per kilobase of exon model per million […]. […] The P-value indicated the credibility of each differential gene expression and was corrected by the false discovery rate (FDR) ([21]). […] In the present study, using grass carp pituitary cells as model, high-throughput RNA-seq was used to examine the pituitary actions of GnRH3 in teleost. […] The most abundant GO terms among the cellular component category were ‘intracellular part’, ‘membrane-bounded organelle’, ‘intracellular membrane-bounded organelle’, ‘organelle part’, and ‘intracellular organelle part’. Furthermore, the plentiful groups of biological processes were ‘metabolic process’, ‘organic substance metabolic process’, ‘primary metabolic process’, ‘cellular metabolic process’, and ‘biological regulation ( Figure 3A ).

For `CC(C)C[C@H](NC(=O)[C@H](Cc1c[nH]c2ccccc12)NC(=O)CNC(=O)[C@H](Cc1ccc(O)cc1)NC(=O)[C@H](CO)NC(=O)[C@H](Cc1c[nH]c2ccccc12)NC(=O)[C@H](Cc1c[nH]cn1)NC(=O)[C@@H]1CCC(=O)N1)C(=O)N1CCC[C@H]1C(=O)NCC(N)=O` [GnRH3] ([pGlu]HWSYGWLPG-NH2), the “fold change (FC), suhb mRNA” value (3-Beta-hydroxysteroid sulfotransferase, FDR 2.86E-22) was 0.44, the “fold change (FC), atp5me mRNA” value (ATP synthase subunit e, FDR 5.40E-07) was 0.69 and the “fold change (FC), arpc4 mRNA” value (Actin-related protein 2/3 subunit 4-like, FDR 1.86E-42) was 0.66. For the same compound, the “fold change (FC), creb2 mRNA” value (Activating transcription factor 4b, FDR 1.69E-07) was 1.56, the “fold change (FC), cart2 mRNA” value (Amphetamine-regulated transcript II precursor, FDR 1.73E-22) was 19.16 and the “fold change (FC), anx11 mRNA” value (Annexin 11a, FDR 0) was 3.17. The “fold change (FC), mx1 mRNA” value (Antiviral effector Mx3, FDR 0.004203) was 0.29, the “fold change (FC), manf mRNA” value (Astrocyte-derived neurotrophic factor, FDR 6.58E-124) was 1.71 and the “fold change (FC), npr3 mRNA” value (Atrial natriuretic peptide receptor 3 isoform X1, FDR 0) was 11.53. The “fold change (FC), e2.7.3.2 mRNA” value (Brain creatine kinase b, FDR 0) was 3.88, the “fold change (FC), agrb1 mRNA” value (Brain-specific angiogenesis inhibitor 1-like, FDR 0) was 8.87 and the “fold change (FC), calm mRNA” value (Calmodulin, FDR 2.37E-221) was 0.68. The “fold change (FC), ctsl mRNA” value (Cathepsin La isoform X1, FDR 0) was 2.55, the “fold change (FC), cckar mRNA” value (Cholecystokinin receptor-like isoform, FDR 0.40) was 1.41 and the “fold change (FC), chd4 mRNA” value (Chromodomain-DNA-binding protein 4, FDR 3.30E-172) was 0.64. For the same compound, the “fold change (FC), ctro mRNA” value (Citron Rho-interacting kinase, FDR 3.29E-164) was 5.24, the “fold change (FC), bha15 mRNA” value (Class A basic helix-loop-helix protein 15, FDR 0) was 1.66 and the “fold change (FC), sod1 mRNA” value (Copper/zinc superoxide dismutase, FDR 1.09E-31) was 0.69. The “fold change (FC), mdh1 mRNA” value (Cytosolic malate dehydrogenase, FDR 4.31E-77) was 0.68, the “fold change (FC), dgkz mRNA” value (Diacylglycerol kinase zeta-like isoform X1, FDR 0.003213) was 0.41 and the “fold change (FC), drd2 mRNA” value (Dopamine D2 receptor, FDR 2.63E-37) was 0.35. For the same compound, the “fold change (FC), rergl mRNA” value (Estrogen-regulated inhibitor-like protein, FDR 2.35E-26) was 6.29, the “fold change (FC), npy2r mRNA” value (Europeptide Y receptor type 2-like, FDR 0.07342027) was 0.44 and the “fold change (FC), fabp7 mRNA” value (Fatty acid binding protein 7, FDR 5.12E-107) was 0.50. For the same compound, the “fold change (FC), fabp3 mRNA” value (Fatty-acid binding protein 3b, FDR 1.56E-177) was 0.63, the “fold change (FC), fth1 mRNA” value (Ferritin heavy chain, FDR 0) was 1.90 and the “fold change (FC), gmpr1 mRNA” value (GMP reductase 1, FDR 2.64E-126) was 0.61. For the same compound, the “fold change (FC), bip mRNA” value (GRP78, FDR 5.39E-31) was 1.78, the “fold change (FC), ggh mRNA” value (Gamma-glutamyl hydrolase, FDR 1.06E-186) was 1.51 and the “fold change (FC), grp mRNA” value (Gastrin-releasing peptide-like, FDR 1.46E-176) was 1.52. For the same compound, the “fold change (FC), gst mRNA” value (Glutathione S-transferase, FDR 8.59E-06) was 0.67, the “fold change (FC), gphb5 mRNA” value (Glycoprotein hormone beta-5, FDR 2.13E-64) was 0.69 and the “fold change (FC), gthα mRNA” value (Glycoprotein hormones alpha chain, FDR 0) was 1.28. For the same compound, the “total number of different expression genes (DEGs)” value (three replicates, TPM >5, FDR <0.05) was 820, the “number of downregulated genes” value (three replicates, TPM >5, FDR <0.05, FC <0.7) was 575 and the “number of upregulated genes” value (three replicates, TPM >5, FDR <0.05, FC >1.5) was 245. The “fold change (FC), pa2g3 mRNA” value (Group 3 secretory phospholipase A2-like, FDR 6.47E-212) was 0.29, the “fold change (FC), hpt mRNA” value (Haptoglobin-like, FDR 4.16E-131) was 5.16 and the “fold change (FC), hmgb1 mRNA” value (High-mobility group box 1, FDR 7.95E-46) was 0.69. The “fold change (FC), hint1 mRNA” value (Histidine triad nucleotide-binding protein 1, FDR 7.80E-16) was 0.66, the “fold change (FC), h2a mRNA” value (Histone H2A, FDR 1.56E-20) was 0.63 and the “fold change (FC), h2b3 mRNA” value (Histone H2B 3, FDR 4.58E-23) was 0.53. For the same compound, the “fold change (FC), h4 mRNA” value (Histone H4, FDR 0.002615) was 0.68, the “fold change (FC), inhba mRNA” value (Inhibin-beta A, FDR 1.08E-11) was 1.90 and the “fold change (FC), il10ra mRNA” value (Interleukin-10 receptor 1, FDR 0.009871) was 27.19. For the same compound, the “fold change (FC), erg7 mRNA” value (Lanosterol synthase, FDR 1.00E-62) was 0.43, the “fold change (FC), lepr mRNA” value (Leptin receptor long form, FDR 6.73E-61) was 2.60 and the “fold change (FC), lhβ mRNA” value (Luteinizing hormone, FDR 0) was 1.32. For the same compound, the “fold change (FC), rfx1 mRNA” value (MHC class II regulatory factor RFX1, FDR 0) was 0.28, the “fold change (FC), mvp mRNA” value (Major vault protein, FDR 2.14E-255) was 0.64 and the “fold change (FC), mshr1 mRNA” value (Melanocyte-stimulating hormone receptor, FDR 0) was 0.43. The “fold change (FC), m3k20 mRNA” value (Mitogen-activated protein kinase kinase 20, FDR 0.00526) was 0.31, the “fold change (FC), smad7 mRNA” value (Mothers against decapentaplegic homolog 7, FDR 7.44E-31) was 1.78 and the “fold change (FC), mcfd2 mRNA” value (Multiple coagulation factor deficiency protein, FDR 3.57E-236) was 1.65. For the same compound, the “fold change (FC), marcksl1b mRNA” value (Myristoylated alanine-rich C substrate 2, FDR 2.63E-101) was 0.67, the “fold change (FC), nab1 mRNA” value (NGFI-A-binding protein 1, FDR 3.65E-131) was 5.88 and the “fold change (FC), nec1 mRNA” value (Neuroendocrine convertase 1, FDR 0) was 1.54. For the same compound, the “fold change (FC), nfasc mRNA” value (Neurofascin, FDR 5.61E-52) was 10.71, the “fold change (FC), nmb mRNA” value (Neuromedin-B-like, FDR 4.39E-07) was 3.29 and the “fold change (FC), nltp mRNA” value (Non-specific lipid-transfer protein, FDR 2.86E-12) was 0.41. For the same compound, the “fold change (FC), nucb1 mRNA” value (Nucleobindin-1 precursor, FDR 1.72E-149) was 1.56, the “fold change (FC), nlrp3 mRNA” value (PYD domains-containing protein 3-like, FDR 0.000497) was 0.26 and the “fold change (FC), fkbp11 mRNA” value (Peptidyl-prolyl cis-trans isomerase, FDR 0) was 1.94. The “fold change (FC), gpr61 mRNA” value (Probable G-protein coupled receptor-like, FDR 2.17E-78) was 7.06, the “fold change (FC), pdyn mRNA” value (Proenkephalin-B-like isoform X1, FDR 7.38E-17) was 5.14 and the “fold change (FC), prl mRNA” value (Prolactin, FDR 0) was 1.22. For the same compound, the “fold change (FC), s100b mRNA” value (Protein S100-B, FDR 3.01E-240) was 0.31, the “fold change (FC), ppp1r17 mRNA” value (Protein phosphatase 1 regulatory 17-like, FDR 2.87E-10) was 0.68 and the “fold change (FC), r4rl2 mRNA” value (Reticulon 4 receptor-like 2b precursor, FDR 6.85E-299) was 93.68. The “fold change (FC), estd mRNA” value (S-formylglutathione hydrolase, FDR 4.80E-36) was 0.37, the “fold change (FC), scg2 mRNA” value (Secretogranin II precursor, FDR 0) was 1.51 and the “fold change (FC), sqstm1 mRNA” value (Sequestosome-1 isoform X1, FDR 0) was 1.69. For the same compound, the “fold change (FC), cdc42bp mRNA” value (Serine/threonine-protein kinase MRCK beta, FDR 0.004184) was 0.37, the “fold change (FC), plk2 mRNA” value (Serine/threonine-protein kinase PLK2, FDR 0) was 5.78 and the “fold change (FC), sec11 mRNA” value (Signal peptidase complex catalytic subunit, FDR 1.55E-131) was 1.55. The “fold change (FC), spcs3 mRNA” value (Signal peptidase complex subunit 3, FDR 2.74E-239) was 1.77, the “fold change (FC), sstr3 mRNA” value (Somatostatin receptor type 3, FDR 3.09E-126) was 0.42 and the “fold change (FC), stat4 mRNA” value (Stat 4-like, FDR 9.86E-21) was 0.86. The “fold change (FC), stat5a mRNA” value (Stat5.2 protein, FDR 0.04174356) was 0.89, the “fold change (FC), sdf2l mRNA” value (Stromal cell-derived factor 2-like 1, FDR 1.30E-57) was 1.55 and the “fold change (FC), tt39b mRNA” value (Tetratricopeptide repeat protein 39B-like, FDR 6.74E-06) was 6.76. For the same compound, the “fold change (FC), rdl mRNA” value (Thiosulfate sulfurtransferase, FDR 3.51E-111) was 1.57, the “fold change (FC), ppp1r10 mRNA” value (Threonine-protein phosphatase 1 regulatory, FDR 2.43E-39) was 0.42 and the “fold change (FC), junb mRNA” value (Transcription factor jun-B, FDR 2.36E-96) was 1.89. The “fold change (FC), rhoa mRNA” value (Transforming protein rhoa, FDR 0.042946) was 0.32, the “fold change (FC), tpisb mRNA” value (Triosephosphate isomerase B, FDR 8.61E-53) was 0.68 and the “fold change (FC), tph1 mRNA” value (Tryptophan 5-hydroxylase 1, FDR 0) was 17.70. The “fold change (FC), tubb mRNA” value (Tubulin beta-4B chain, FDR 3.79E-49) was 0.40, the “fold change (FC), tsg6 mRNA” value (Tumor necrosis factor-inducible gene 6 protein, FDR 1.99E-06) was 5.12 and the “fold change (FC), crh mRNA” value (Urotensin 1, FDR 6.72E-06) was 1.74. For the same compound, the “fold change (FC), snf8 mRNA” value (Vacuolar-sorting protein SNF8-like, FDR 1.18E-06) was 0.44, the “fold change (FC), vdac3 mRNA” value (Voltage-dependent anion-selective protein 3, FDR 5.87E-44) was 0.69 and the “fold change (FC), zbtb8 mRNA” value (Zinc finger domain-containing protein 8A, FDR 1.08E-73) was 1.69. The “fold change (FC), zfp36l mRNA” value (Zinc finger protein 36, C3H type-like 1b, FDR 1.92E-125) was 0.66 and the “fold change (FC), pim1 mRNA” value (threonine-protein kinase pim-1, FDR 0) was 3.25.
